Values of other authors, collected in patent US10912471B2, “System and method for automatic perfusion measurement” (priority 2018, dated 2021).

Columns and labels:
plasma proteins = conditions: becomes confined to the vascular system
[1] = administration not without risks, e.g. during pregnancy

CC1(C)C(/C=C/C=C/C=C/C=C2\N(CCCCS(=O)(=O)O)c3ccc4ccccc4c3C2(C)C)=[N+](CCCCS(=O)(=O)[O-])c2ccc3ccccc3c21 [ICG, Indocyanine green]
binding to plasma proteins (plasma proteins): binds tightly to plasma proteins | toxicity classification [1]: low
